Measured values as given in EP1057825A1, “ISOFLAVANE DERIVATIVES AND IMMUNOPOTENTIATING COMPOSITIONS CONTAINING THE SAME” (SHIONOGI & CO., LTD., priority 1998, dated 1999).

Columns and labels:
mouse spleen cells = assay: Action on the blastogenesis of mouse spleen cells (ConA-stimulated, MTT reduction method); assay type: cell-based, BALB/c mouse; conditions: ConA 1 µg/ml, 3 days, rate against no test compound = one; for activity at 0.1 µg/mL / activity at 0.2 µg/mL / activity at 0.39 µg/mL / activity at 0.78 µg/mL / activity at 1.56 µg/mL / activity at 3.13 µg/mL / activity at 6.25 µg/mL: Mus musculus, 72 h
Method: Serial two-fold dilutions (100 µl/well) with 10% FBS of test compounds which are dissolved in a dimethyl sulfoxide (DMSO) solution are obtained on a 96-well microplate, and used as test samples.
The spleen of a BALB/c mouse is aseptically isolated, and gently ground on a wire mesh with dropwise addition of sterilzed saline. The filtrate is passed through a nylon mesh (Becton Dickinson; pore size: 70 µm), thereby preparing a unicellular suspension.
(§1) After being washed twice with sterilized saline, the spleen cells are suspended in RPMI1460 containing 10% FCS and containing 1 µg/ml of concanavalin A (abbreviated as ConA: Sigma, U.S.) as well as an antibiotic (Sigma: Antibiotic Antimycotic), and dispensed into a 96-well microplate, in which 100 µl each of diluted test samples are previously dispensed, in amounts of 3 × 10^5 cells/100 µl/well.
Thereafter, culturing is carried out under 5% carbon dioxide gas at 37°C for 3 days, and then the blastogenesis of lymphocytes is measured by an MTT reduction method [Mosmann T, Journal of Immunological Method, vol. 65, p. 55, 1983]. The blastogenesis rate can be quantitated as a rate against the blastogenesis of those not having test compounds added thereto, which is defined as one. The presence of an immunoactivating action can be determined if the blastogenesis rate exceeds one.
Serial two-fold dilutions (100 µl/well) with RPMI1640 (Nikken Biomedical Laboratory) containing 10% FBS (bovine fetal serum: Dainippon Pharmaceutical Co., Ltd.) of test compounds which were dissoloved in a dimethylsulfoxide (DMSO) solution were obtained on a 96-well microplate, and used as test samples.
The spleen of a BALB/c mouse (a 6 week-old female) was aseptically isolated, and gently ground on a wire mesh with dropwise addition of sterilzed saline. The filtrate was passed through a nylon mesh (Becton Dickinson; pore size: 70 µm), thereby preparing a unicellular suspension.
as §1, with “cells were” for “cells are”, “samples had” for “samples are”, “previously been” for “previously”, “of 3×10^5” for “of 3 × 10^5”
Thereafter, culturing was carried out under 5% carbon dioxide gas at 37°C for 3 days, and then the blastogenesis of lymphocytes was measured by an MTT reduction method [Mosmann T, Journal of Immunological Method, vol. 65, p. 55, 1983]. The results are shown in [Table 4].

mouse bone marrow cells = assay: Metabolism promoting action on mouse bone marrow cells (mitochondrial metabolism activity, MTT reduction method); assay type: cell-based, BALB/c mouse; conditions: 5 days, magnitude of metabolism, no test compound = one; for activity at 0.39 µg/mL / activity at 0.78 µg/mL / activity at 1.56 µg/mL / activity at 3.13 µg/mL / activity at 6.25 µg/mL / activity at 12.5 µg/mL: Mus musculus, Bone marrow cell, 120 h
Description: The presence of an immunoactivating action can be determined if the magnitude of metabolism exceeds one, where the cellular metabolism of cells not having test compounds added thereto is defined as one.

[1] = concentration of additions in medium 0.1 μg/ml
[2] = concentration of additions in medium 0.2 μg/ml
[3] = concentration of additions in medium 0.39 μg/ml
[4] = concentration of additions in medium 0.78 μg/ml
[5] = concentration of additions in medium 1.56 μg/ml
[6] = concentration of additions in medium 3.13 μg/ml
[7] = concentration of additions in medium 6.25 μg/ml
[8] = Test compound concentration 0.39 µg/ml
[9] = Test compound concentration 0.78 µg/ml
[10] = Test compound concentration 1.56 µg/ml
[11] = Test compound concentration 3.13 µg/ml
[12] = Test compound concentration 6.25 µg/ml
[13] = Test compound concentration 12.5 µg/ml

| Compound | activity at 0.1 µg/mL (mouse spleen cells; [1]) [%] | activity at 0.2 µg/mL (mouse spleen cells; [2]) [%] | activity at 0.39 µg/mL (mouse spleen cells; [3]) [%] | activity at 0.78 µg/mL (mouse spleen cells; [4]) [%] | activity at 1.56 µg/mL (mouse spleen cells; [5]) [%] | activity at 3.13 µg/mL (mouse spleen cells; [6]) [%] | activity at 6.25 µg/mL (mouse spleen cells; [7]) [%] | activity at 0.39 µg/mL (mouse bone marrow cells; [8]) [%] | activity at 0.78 µg/mL (mouse bone marrow cells; [9]) [%] | activity at 1.56 µg/mL (mouse bone marrow cells; [10]) [%] | activity at 3.13 µg/mL (mouse bone marrow cells; [11]) [%] | activity at 6.25 µg/mL (mouse bone marrow cells; [12]) [%] | activity at 12.5 µg/mL (mouse bone marrow cells; [13]) [%] | further results |
| --- | --- | --- | --- | --- | --- | --- | --- | --- | --- | --- | --- | --- | --- | --- |
| 3-(2,4-dimethoxy-3-(3-methyl-2-butenyl)phenyl)-3,4-dihydro-5-hydroxy-7-methoxy-6-(3-methyl-2- butenyl)-2H-1-benzopyran [A-6] | – | – | – | – | – | – | – | – | – | – | – | – | – | blastogenesis rate (mouse spleen cells; [1]): 1.12; blastogenesis rate (mouse spleen cells; [2]): 1.05; blastogenesis rate (mouse spleen cells; [3]): 1.12; blastogenesis rate (mouse spleen cells; [4]): 1.26; blastogenesis rate (mouse spleen cells; [5]): 1.55; blastogenesis rate (mouse spleen cells; [6]): 2.46; blastogenesis rate (mouse spleen cells; [7]): 3.28; metabolism activity of mouse bone marrow cells (mouse bone marrow cells; [8]): 0.97; metabolism activity of mouse bone marrow cells (mouse bone marrow cells; [9]): 1.05; metabolism activity of mouse bone marrow cells (mouse bone marrow cells; [10]): 1.20; metabolism activity of mouse bone marrow cells (mouse bone marrow cells; [11]): 1.52; metabolism activity of mouse bone marrow cells (mouse bone marrow cells; [12]): 0.77; metabolism activity of mouse bone marrow cells (mouse bone marrow cells; [13]): 0.51 |
| COc1c(CC=C(C)C)c(O)cc2c1CC(c1ccc(O)c(CC=C(C)C)c1O)CO2 (centres unmarked) [A-1, 4-[3,4-dihydro-7-hydroxy-5-methoxy-6-(3-methyl-2-butenyl)-2H-1-benzopyran-3-yl]-2-(3-methyl-2-butenyl)-1,3-benzenediol] | 113 | 109 | 129 | 157 | 188 | 225 | 171 | 114 | 101 | 93 | 127 | 198 | 58 | – |
| COc1cc2c(c(OC)c1CC=C(C)C)CC(c1ccc(O)c(CC=C(C)C)c1O)CO2 (centres unmarked) [A-2, 4-[3,4-dihydro-5,7-dimethoxy-6-(3-methyl-2-butenyl)-2H-1-benzopyran-3-yl]-2-(3-methyl-2-butenyl)-1,3-benzenediol] | 117 | 112 | 137 | 184 | 234 | 121 | 26 | – | – | – | – | – | – | – |
| COc1ccc(C2COc3cc(OC)c(CC=C(C)C)c(OC)c3C2)c(OC)c1CC=C(C)C (centres unmarked) [A-3, 3-(2,4-dimethoxy-3-(3-methyl-2-butenyl)phenyl)-3,4-dihydro-5,7-dimethoxy-6-(3-methyl-2-butenyl)-2H-1-benzopyran] | 98 | 88 | 88 | 79 | 83 | 120 | 246 | 111 | 108 | 114 | 114 | 111 | 62 | – |
| COc1ccc(C2COc3cc(OC)c(CC=C(C)C)c(OC)c3C2)c(O)c1CC=C(C)C (centres unmarked) [A-4, 3-(2-hydroxy-4-methoxy-3-(3-methyl-2-butenyl)-phenyl)-3,4-dihydro-5,7-dimethoxy-6-(3-methyl-2-butenyl)-2H-1-benzopyran] | 105 | 101 | 109 | 113 | 155 | 231 | 375 | 107 | 107 | 121 | 132 | 133 | 58 | – |
| COc1cc2c(c(OC)c1CC=C(C)C)CC(c1ccc(O)c(CC=C(C)C)c1OC)CO2 (centres unmarked) [A-5, 3-(4-hydroxy-2-methoxy-3-(3-methyl-2-butenyl)-phenyl)-3,4-dihydro-5,7-dimethoxy-6-(3-methyl-2-butenyl)-2H-1-benzopyran] | 101 | 96 | 107 | 111 | 118 | 209 | 239 | 116 | 120 | 138 | 146 | 55 | 53 | – |
| COc1ccc(C2COc3cc(O)c(CC=C(C)C)c(OC)c3C2)c(O)c1CC=C(C)C (centres unmarked) [A-7, 3-(2-hydroxy-4-methoxy-3-(3-methyl-2-butenyl)-phenyl)-3,4-dihydro-5-methoxy-7-hydroxy-6-(3-methyl-2-butenyl)-2H-1-benzopyran] | 113 | 107 | 132 | 161 | 195 | 293 | 408 | 103 | 112 | 139 | 152 | 51 | 51 | – |
| COc1c(C2COc3cc(O)c(CC=C(C)C)c(OC)c3C2)ccc(O)c1CC=C(C)C (centres unmarked) [A-8, 3-(4-hydroxy-2-methoxy-3-(3-methyl-2-butenyl)-phenyl)-3,4-dihydro-5-methoxy-7-hydroxy-6-(3-methyl-2-butenyl)-2H-1-benzopyran] | 111 | 99 | 112 | 122 | 103 | 34 | 23 | 113 | 127 | 161 | 156 | 50 | 51 | – |
